Experimental data as given in US11478467B2 (priority 2017, dated 2022).
Like-named read-outs stand apart in the source and are kept apart here.

Tests used:
[1] = assay type: in vivo, rat; conditions: 10 mg/kg intraperitoneally, male SD rats
Protocol: Adult male SD rats were pretreated with the compound 146 or M1 (10 mg/kg intraperitoneally) and the brain and blood plasma were collected 30, 60, 120 and 240 min after M1 administration. The amount of compound in brain tissue extracts was measured using the UPLC/MS analysis.

[2] = Pharmacokinetic study of sarpogrelate hydrochloride i.v. in rats; assay type: in vivo, rat; conditions: after sarpogrelate hydrochloride 2 mg/kg i.v.
Protocol: Pharmacokinetic study was performed in male Wistar rats equipped with the jugular vein cannulas. Sarpogrelate hydrochloride was formulated in Pharmasolv: PBS buffer (5:95) mixture and administered at the dose of 2 mg/kg intravenously. Blood samples were collected from the jugular vein using heparin as anticoagulant at the scheduled time-points: 5 min, 15 min, 30 min, 1 h, 1.5 h, 2 h, 4 h, and 6 h. An LC-MS/MS bioanalytical method was used for the simultaneous quantification of sarpogrelate and M1 in plasma samples. […] Formation of M1 metabolite of sarpogrelate was rapid as the highest M1 concentrations were measured at the first sampling time points.

[3] = target: CYP2D6 (Homo sapiens (Human), UniProt P10635); conditions: dextromethorphan as substrate; cited from earlier work
[4] = system: MK-801-induced hyperactivity; conditions: 0.1 and 0.3 mg/kg s.c.; MK-801 0.3 mg/kg i.p.; mice; cited from earlier work
[5] = system: Parkinson's disease psychosis; conditions: cited from earlier work
[6] = system: locomotor activity, stereotypy, ataxia; conditions: rats, cited from earlier work; for PCP-elicited hyperactivity / motor behaviors after pretreatment: 10 mg/kg PCP; for behavioral effects given alone (locomotor hyperactivity, stereotypy, ataxia): DO 15-120 mg/kg, DEX 15-120 mg/kg, PCP 1.25-20 mg/kg
[7] = cited from earlier work; for basal insulin secretion: mouse or human islets or in vivo
[8] = system: NMDA receptors; conditions: compared to that of DEX; cited from earlier work
[9] = system: rat primary mixed mesencephalic neuron-glia cultures; conditions: 1-10 micro M; cited from earlier work
[10] = Blood glucose levels and oral glucose tolerance in rats; assay type: in vivo, rat; conditions: given alone, intraperitoneal
Protocol: Test substances were administered to male Wistar (Han) rats (180-280 g at the beginning of the experiments; Janvier Labs) housed in groups under free access to food and water. After overnight food deprivation, the tip of the tail was cut, each rat was weighed, housed individually and left without stress in a quiet room. Approximately 1 hour later, baseline blood glucose was measured from a drop of blood collected from the tail tip, using a commercially available glucose-meter (OneTouch®, Lifescan) and then rats received intraperitoneal injection of sarpogrelate and/or dextromethorphan and 30 min later blood glucose was measured again and rats immediately challenged with glucose at 2 g/kg by oral gavage. Then, blood glucose was measured at 6 time-points until 180 minutes post-glucose challenge.

[11] = high doses; cited from earlier work
[12] = system: PCP-induced hyperactivity; experiment: Phencyclidine-induced hyperactivity in rats (sarpogrelate and dextromethorphan); assay type: in vivo, rat; conditions: dextromethorphan by itself
[13] = cited from earlier work
[14] = system: insomnia; conditions: human, in vivo; cited from earlier work
[15] = system: treatment-resistant major depressive disorder; conditions: in vivo; cited from earlier work
[16] = system: generalized anxiety disorder; conditions: human, in vivo; cited from earlier work
[17] = system: 5-HT2A/5-HT2C receptors; conditions: in vivo; cited from earlier work
[18] = dose-range that covers therapeutically relevant exposures; cited from earlier work
[19] = target: dopamine D2 receptors (Homo sapiens (Human), UniProt P14416); conditions: cited from earlier work
Chain of dopamine D2 receptors (P14416 whole entry): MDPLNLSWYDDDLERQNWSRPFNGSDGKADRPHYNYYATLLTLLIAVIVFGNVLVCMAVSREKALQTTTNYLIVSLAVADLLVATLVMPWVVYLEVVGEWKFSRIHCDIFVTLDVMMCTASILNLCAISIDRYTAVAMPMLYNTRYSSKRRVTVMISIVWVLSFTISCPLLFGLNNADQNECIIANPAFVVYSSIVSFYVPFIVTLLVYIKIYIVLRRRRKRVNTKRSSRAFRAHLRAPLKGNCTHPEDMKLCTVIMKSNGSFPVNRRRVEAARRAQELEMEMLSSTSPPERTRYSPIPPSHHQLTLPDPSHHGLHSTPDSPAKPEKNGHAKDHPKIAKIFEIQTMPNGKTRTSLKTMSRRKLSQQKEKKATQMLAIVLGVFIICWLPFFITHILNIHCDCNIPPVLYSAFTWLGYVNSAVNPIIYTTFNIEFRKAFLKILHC

Chain of CYP2D6 (P10635 whole entry): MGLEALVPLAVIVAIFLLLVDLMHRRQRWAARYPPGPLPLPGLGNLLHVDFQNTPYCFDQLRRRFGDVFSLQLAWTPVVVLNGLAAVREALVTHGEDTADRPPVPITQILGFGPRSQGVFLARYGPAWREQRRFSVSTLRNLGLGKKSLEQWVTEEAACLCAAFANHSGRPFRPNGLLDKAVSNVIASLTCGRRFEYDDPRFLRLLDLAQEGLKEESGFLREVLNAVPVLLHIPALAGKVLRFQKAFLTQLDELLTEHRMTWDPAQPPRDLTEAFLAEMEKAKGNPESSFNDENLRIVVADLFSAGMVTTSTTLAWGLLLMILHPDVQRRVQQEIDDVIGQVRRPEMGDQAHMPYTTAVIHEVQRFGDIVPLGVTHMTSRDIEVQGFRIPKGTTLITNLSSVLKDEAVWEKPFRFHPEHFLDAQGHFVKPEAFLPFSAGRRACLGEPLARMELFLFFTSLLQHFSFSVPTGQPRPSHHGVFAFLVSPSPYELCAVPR

Molecule: COc1cccc(CCc2ccccc2OCC(O)CN(C)C)c1 (racemic) [Compound 146, 1-(dimethylamino)-3-(2-(3-methoxyphenethyl)phenoxy)propan-2-ol]
- total brain concentration vs blood concentration ([1]; 30, 60, 120 and 240 min): significantly exceeded the blood concentration
- penetration into the brain [1]: readily penetrates into the brain
- Formation of M1 metabolite of sarpogrelate [2]: rapid
- M1/sarpogrelate ratio ([2]; plasma): 2.98±0.597%
- inhibition type (Dixon plots) [3]: fit well to all competitive inhibition types

Molecule: CC(C)COc1ccc(CNC(=O)N(Cc2ccc(F)cc2)C2CCN(C)CC2)cc1 [ACP-103, N-(4-fluorophenylmethyl)-N-(1-methylpiperidin-4-yl)-N′-(4-(2-methylpropyloxy)phenylmethyl) carbamide (2R,3R)-dihydroxybutanedioate (2:1)]
- MK-801-induced hyperactivity [4]: significantly attenuated MK-801-induced hyperactivity
- night-time sleep and daytime wakefulness ([5]; compared with placebo): improvements on night-time sleep and daytime wakefulness
- psychotic symptoms (hallucinations and delusions) ([5]; patients with moderate to severe Parkinson's disease): significantly reduced psychotic symptoms

Molecule: CN1CC[C@@]23CCCC[C@@H]2[C@@H]1Cc1ccc(O)cc13 [DO, dextrorphan]
- PCP-elicited hyperactivity / motor behaviors after pretreatment [6]: facilitated
- PCP-elicited hyperactivity / motor behaviors after pretreatment ([6]; listed as dextrorphan): but not its metabolite dextrorphan
- behavioral effects given alone (locomotor hyperactivity, stereotypy, ataxia) [6]: dose-dependent locomotor hyperactivity, stereotypy and ataxia
- basal insulin secretion [7]: did not significantly alter basal insulin secretion
- affinity for NMDA receptors [8]: substantially higher affinity

Molecule: COc1ccc2c(c1)[C@@]13CCCC[C@H]1[C@@H](C2)N(C)CC3 [dextromethorphan, 3-methoxy-17-methylmorphinan]
- PCP-elicited hyperactivity / motor behaviors after pretreatment [6]: attenuate phencyclidine-induced motor behaviors
- PCP-elicited hyperactivity / motor behaviors after pretreatment ([6]; listed as DEX): dose-dependently inhibited
- behavioral effects given alone (locomotor hyperactivity, stereotypy, ataxia) [6]: induced moderate hyperactivity only at the higher doses
- protection of dopamine neurons [9]: protected dopamine neurons against lipopolysaccharide (LPS)-induced reduction of dopamine uptake
- blood glucose level (AUC 30-180 min after oral glucose 2 g/kg) [10]: significantly reduced blood glucose level
- heart rate, blood pressure, temperature, and plasma bromide [11]: mild elevations of heart rate, blood pressure, temperature, and plasma bromide
- motor activity in PCP-treated rats ([12]; oral administration): enhanced
- motor activity in PCP-treated rats ([12]; subcutaneous administration): reduced
- area under the curve of blood glucose concentrations within the first 2 h of the OGTT (glucose AUC1-3 h) ([13]; 270 mg DEX vs placebo): significantly (P<0.05) smaller
- maximal serum insulin concentrations following oral glucose intake ([13]; 60 and 270 mg DEX vs placebo): significantly (P<0.05) higher maximal serum insulin concentrations
- fasting serum insulin and fasting blood glucose concentrations ([13]; single oral dose 60 or 270 mg, males with T2DM on metformin): led to neither higher fasting serum insulin concentrations nor lower fasting blood glucose concentrations
- severe hypoglycemic events ([13]; up to a dose of 270 mg): did not provoke any severe hypoglycemic events
- glucose-induced plasma insulin concentrations and glucose tolerance ([7]; DEX via drinking water 4 mg/ml overnight, glucose i.p., mice): significantly higher glucose-induced plasma insulin concentrations and glucose tolerance
- basal plasma insulin and fasting blood glucose concentrations ([7]; DEX via drinking water 4 mg/ml overnight, mice): changed neither basal plasma insulin nor fasting blood glucose concentrations
- basal insulin secretion [7]: did not significantly alter basal insulin secretion

Molecule: CN(C)CCO/N=C(/C=C/c1ccc(O)cc1)c1ccccc1F [eplivanserin]
- clinical efficacy in insomnia [14]: demonstrated clinical efficacy in patients with insomnia

Molecule: CNC1(c2ccccc2Cl)CCCCC1=O (stereo not shown) [ketamine, 2-(2-chlorophenyl)-2-(methylamino)cyclohexan-1-one]
- antidepressant activity [15]: rapid and robust antidepressant activity

Molecule: COC(=O)c1c2n(c3ccccc13)Cc1ccccc1N1CCN(C)CC21.Cl (stereo not shown) [serazepine]
- efficacy in generalized anxiety disorder [16]: shown efficacy

Molecule: N,N-dimethyl-2-[[(1R,3S,4R)-4,7,7-trimethyl-3-phenyl-3-bicyclo[2.2.1] heptanyl] oxy]ethanamine [Compound 829]
- down-regulation of 5-HT2A/5-HT2C receptors [17]: does not induce down-regulation of these receptors
- prolactin [18]: not found to elevate prolactin
- selectivity against dopamine D2 receptors [19]: at least 10 fold
